According to patent US8779141B2, “Viral inhibitors” (Gilead Sciences, Inc., priority 2002, dated 2014):
Converted amounts (≈) assume the structure as drawn. Like-named read-outs stand apart in the source and are kept apart here.

Assays:
[1] = test system: Vero cells; assay: Metabolism of confluent Vero cells (MTS); format: cell-based; settings: Table 13; reduction of metabolism of confluent Vero cells by 50%, MTS method
Experimental: (§1) Madin-Darbey Bovine Kidney (MDBK) cells were maintained in Dulbecco's modified Eagle medium (DMEM) supplemented with BVDV-free 5% fetal calf serum (DMEME-FCS) at 37° C. in a humidified, 5% CO2 atmosphere. BVDV-1 (strain PE515) was used to assess the antiviral activity in MDBK cells. Vero cells were maintained in the same way as MDBK cells. Vero cells were infected with Coxsackie B3 virus (strain Nancy).
(§2) Ninety-six-well cell culture plates were seeded with Vero cells in DMEM medium containing 10 fetal calf serum (FCS) so that cells reached confluency 24-48 hr later. Medium was then removed and serial 5-fold dilutions of the test compounds were added in a total volume of 100 ul, after which the virus inoculum (100 μl) was added to each well. […] Uninfected cells and cells receiving virus without compound were included in each asay plate. After 5 days, the medium was removed and 90 μl of DMEM-FCS and 10 μl of MTS/PMS solution (Promega) was added to each well. Following a 2 hr incubation period at 37° C., the optical density of the wells was read at 498 nm in a microplate reader. The 50% effective concentration (EC50) value was defined as the concentration of compound that protects 50% of the cell monolayer from virus-induced cytopathic effect.

[2] = Cytostatic effect on exponentially growing MDBK cells (MTS); format: cell-based, Bovine; settings: bovine; Table 9; reduction of growth of exponentially growing MDBK cells by 50%; mean of 2-5 determinations
Experimental: (§3) Madin-Darbey Bovine Kidney (MDBK) cells were maintained in Dulbecco's modified Eagle medium (DMEM) supplemented with BVDV-free 5% fetal calf serum ([…]) at 37° C. in a humidified, 5% CO2 atmosphere. […] Vero cells were maintained in the same way as MDBK cells. […] The effect of the drugs on exponentially growing MDBK cells was assessed as follows. Cells were seeded at a density of 5000 cell/well in 96 well plates in MEM medium (Gibco) supplemented with 10% fetal calf serum, 2 mM L-glutamine (Life Technologies) and bicarbonate (Life Technologies). […] Cultures were then again further incubated for 3 days after which the effect on cell growth was quantified by means of the MTS method (Promega).

[3] = test system: Coxsackie B3 virus (strain Nancy); assay: Anti-coxsackie virus assay, cytopathic effect in Vero cells (MTS); format: cell-based; settings: Enterovirus B, Table 13, reduction of virus (CBV-3 Nancy strain)-induced cytopathic effect in Vero cells by 50%
Experimental: as §1, §2

[4] = test system: BVDV-1 (strain PE515); assay: Anti-BVDV assay, virus-induced cytopathic effect in MDBK cells (MTS); format: cell-based, Bovine Viral Diarrhea Virus
Experimental: as §1
Ninety-six-well cell culture plates were seeded with MDBK cells in DMEM-FCS so that cells reached 24 hr later confluency. Then medium was removed and serial 5-fold dilutions of the test compounds were added in a total volume of 100 ul, after which the virus inoculum (100 ul) was added to each well. […] Uninfected cells and cells receiving virus without compound were included in each assay plate. After 5 days, medium was removed and 90 μl of DMEM-FCS and 10 ul of MTS/PMS solution (Promega) was added to each well. Following a 2 hr incubation period at 37° C. the optical density of the wells was read at 498 nm in a microplate reader.

[5] = Proliferation of exponentially growing Huh-5-2 cells (MTS); format: cell-based; settings: human, exponentially growing Huh-5-2 cells (HCV replicon cell line); Table 11; inhibition of proliferation of exponentially growing Huh-5-2 cells by 50%
Experimental: (§4) Cells were seeded at a density of 7000 cells per well in 96 well View Plate™ (Packard) in medium containing the same components as described above, except for G418. Cells were allowed to adhere and proliferate for 24 hr. At that time, culture medium was removed and serial dilutions of the test compounds were added in culture medium lacking G418. Interferon alfa 2a (500 IU) was included as a positive control. Plates were further incubated at 37° C. and 5% CO2 for 72 hours. Replication of the HCV replicon in Huh-5 cells results in luciferase activity in the cells. Luciferase activity is measured by adding 50 μl of 1× Glo-lysis buffer (Promega) for 15 minutes followed by 50 ul of the Steady-Glo Luciferase assay reagent (Promega). Luciferase activity is measured with a luminometer and the signal in each individual well is expressed as a percentage of the untreated cultures. […] Instead the density of the culture is measured by means of the MTS method (Promega).

[6] = test system: HCV replicon in Huh-5-2 cells; assay: Anti-HCV replicon assay, luciferase activity in Huh-5-2 cells; format: cell-based; settings: Hepatitis C virus, Table 11, inhibition of luciferase activity in the replicon system by 50%
Experimental: as §4

[7] = test system: MDBK cells; assay: Cytostatic effect on exponentially growing MDBK cells (MTS); format: cell-based, Bovine; settings: for MTC: Table 10, mean toxic concentration, reduces growth of exponentially growing MDBK cells by 50%
Experimental: as §3

[8] = Bovine viral diarrhea virus isolates and strains, Table 9, reduction of virus induced cytopathic effect in MDBK cells by 50%, BVDV strain PE515, mean of 2-5 determinations, read-out: EC50
[9] = Bovine viral diarrhea virus isolates and strains, Table 10, reduction of virus induced cytopathic effect in MDBK cells by 50%, read-out: EC50

| Compound | TC50 [1] [µg/mL] | CC50 at 3 days [2] [µg/mL] | EC50 [3] [µg/mL] | EC50 [4, 8] [µg/mL] | also measured |
| --- | --- | --- | --- | --- | --- |
| COc1cccc(-c2nc3ccn(Cc4ccc(Br)cc4)cc-3n2)c1 [GPJN-64, 5-[(4-Bromophenyl)methyl]-2-(3-methoxyphenyl)-5H-imidazo[4,5-c]pyridine] | >42 | > 100 | 12 (≈ 30.4 µM) | 0.026 (≈ 0.0659 µM) |  |
| Fc1cccc(-c2nc3ccn(Cc4ccc(F)cc4F)cc-3n2)c1 [GPC-11, 5-[(2,4-Difluorophenyl)methyl]-2-(3-fluorophenyl)-5H-imidazo[4,5-c]pyridine] | >100 | > 100 | 4.76 (≈ 14 µM) | 0.56 (≈ 1.65 µM) |  |
| Fc1cccc(F)c1-c1nc2ccn(Cc3ccc(Cl)c(Cl)c3)cc-2n1 [GPC-10, 5-[(3,4-Dichlorophenyl)methyl]-2-(2,6-difluorophenyl)-5H-imidazo[4,5-c]pyridine] | 59 (≈ 151 µM) | 4 (≈ 10.3 µM) | 1.81 (≈ 4.64 µM) | 0.064 (≈ 0.164 µM) |  |
| Fc1ccc(Cn2ccc3nc(-c4c(F)cccc4F)nc-3c2)c(F)c1 [GPJN-40, 2-(2,6-Difluorophenyl)-5-[(2,4-difluorophenyl)methyl]-5H-imidazo[4,5-c]pyridine] | >100 | > 100 | 8.95 (≈ 25 µM) | 0.25 (≈ 0.7 µM) |  |
| Brc1ccc(Cn2ccc3nc(CSc4ccccc4)nc-3c2)cc1 [GPJN-83, 5-[(4-Bromophenyl)methyl]-2-[(phenylthio)methyl]-5H-imidazo[4,5-c]pyridine] |  |  |  |  | CC50 at 72 hours [5]: 8 µg/mL (≈ 19.5 µM); EC50 [6]: < 0.62 µg/mL |
| c1ccc(-c2nc3ccn(Cc4cccc5ccccc45)cc-3n2)cc1 [GPJN-36, 5-(1-Naphthalenylmethyl)-2-phenyl-5H-imidazo[4,5-c]pyridine] |  |  |  |  | CC50 ([7]; Table 9, reduction of growth of exponentially growing MDBK cells by 50%, mean of 2-5 determinations): 24 µg/mL (≈ 71.6 µM); EC50 ([4]; Table 9, reduction of virus induced cytopathic effect in MDBK cells by 50%, BVDV strain PE515, mean of 2-5 determinations): 0.019 µg/mL (≈ 0.0566 µM) |
| Brc1cccc(-c2nc3ccn(CCOc4ccccc4)cc-3n2)c1 [GPJN-100, 2-(3-Bromophenyl)-5-(2-phenoxyethyl)-5H-imidazo[4,5-c]pyridine] |  |  |  |  | MTC [7]: 20 µg/mL; EC50 [4, 9]: 0.088 µg/mL (≈ 0.223 µM) |
| CC(C)(C)c1ccc(Cn2ccc3nc(-c4ccccc4)nc-3c2)cc1 [GPJN-16, 5-[[4-(1,1-Dimethylethyl)phenyl]methyl]-2-phenyl-5H-imidazo[4,5-c]pyridine] |  | 8.1 (≈ 23.7 µM) |  | 0.246 (≈ 0.72 µM) | CC50 at 72 hours [5]: 3 µg/mL (≈ 8.79 µM); EC50 [6]: 1 µg/mL (≈ 2.93 µM) |
| FC(F)(F)c1cccc(-c2nc3ccn(Cc4ccc(Br)cc4)cc-3n2)c1 [GPJN-87, 5-[(4-Bromophenyl)methyl]-2-[3-(trifluoromethyl)phenyl]-5H-imidazo[4,5-c]pyridine] |  |  |  |  | CC50 at 72 hours [5]: 20 µg/mL (≈ 46.3 µM); EC50 [6]: < 0.62 µg/mL |
| Clc1c2nc(-c3ccccc3)nc-2ccn1Cc1ccc(Br)cc1 [GPJN-96, 5-[(4-Bromophenyl)methyl]-4-chloro-2-phenyl-5H-imidazo[4,5-c]pyridine] |  |  |  |  | CC50 at 72 hours [5]: 4 µg/mL (≈ 10 µM); EC50 [6]: 1 µg/mL (≈ 2.51 µM) |
| Brc1ccc(Cn2ccc3nc(-c4cccc5ccccc45)nc-3c2)cc1 [GPJN-62, 5-[(4-Bromophenyl)methyl]-2-(1-naphthalenyl)-5H-imidazo[4,5-c]pyridine] |  | 9.4 (≈ 22.7 µM) |  | 0.12 (≈ 0.29 µM) | CC50 at 72 hours [5]: 6 µg/mL (≈ 14.5 µM); EC50 [6]: < 0.62 µg/mL |
| c1ccc(-c2ccc(Cn3ccc4nc(-c5cccc6ccccc56)nc-4c3)cc2)cc1 [GPJN-115, 5-([1,1′-Biphenyl]-4-ylmethyl)-2-(1-naphthalenyl)-5H-imidazo[4,5-c]pyridine] |  |  |  |  | MTC [7]: 4 µg/mL; EC50 [4, 9]: 0.24 µg/mL (≈ 0.583 µM) |
| Clc1cn(Cc2ccc(Br)cc2)cc2nc(-c3ccccc3)nc1-2 [GPJN-103, 5-[(4-Bromophenyl)methyl]-7-chloro-2-phenyl-5H-imidazo[4,5-c]pyridine] |  |  |  |  | MTC [7]: 20 µg/mL; EC50 [4, 9]: 0.061 µg/mL (≈ 0.153 µM) |
| Fc1ccc(Cn2ccc3nc(-c4c(F)ccc(F)c4F)nc-3c2)c(F)c1 [GPC-12, 5-[(2,4-Difluorophenyl)methyl]-2-(2,3,6-trifluorophenyl)-5H-imidazo[4,5-c]pyridine] | >100 |  | 3.6 (≈ 9.59 µM) |  |  |
| Fc1cccc(-c2nc3ccn(Cc4ccc(Br)cc4)cc-3n2)c1 [GPJN-50, 5-[(4-Bromophenyl)methyl]-2-(3-fluorophenyl)-5H-imidazo[4,5-c]pyridine] | >100 | > 100 | 8.47 (≈ 22.2 µM) | 0.021 (≈ 0.0549 µM) |  |
| COc1ccccc1Cn1ccc2nc(-c3ccccc3)nc-2c1 [GPJN-11, 5-[(2-Methoxyphenyl)methyl]-2-phenyl-5H-imidazo[4,5-c]pyridine] |  | 36 (≈ 114 µM) |  | 0.032 (≈ 0.101 µM) |  |
| Cc1cn(Cc2ccc(Br)cc2)cc2nc(-c3ccccc3)nc1-2 [GPJN-104, 5-[(4-Bromophenyl)methyl]-7-methyl-2-phenyl-5H-imidazo[4,5-c]pyridine] |  |  |  |  | MTC [7]: 20 µg/mL; EC50 [4, 9]: 0.27 µg/mL (≈ 0.714 µM) |
| c1ccc(-c2nc3ccn(Cc4cccnc4)cc-3n2)cc1 [GPJN-35, 2-Phenyl-5-(3-pyridinylmethyl)-5H-imidazo[4,5-c]pyridine] |  | > 100 |  | 0.365 (≈ 1.27 µM) |  |
| COc1ccc(Cn2ccc3nc(-c4ccccc4)nc-3c2)cc1 [GPJN-13, 5-[(4-Methoxyphenyl)methyl]-2-phenyl-5H-imidazo[4,5-c]pyridine] |  | 45 (≈ 143 µM) |  | 0.043 (≈ 0.136 µM) |  |
| FC(F)(F)c1ccc(Cn2ccc3nc(-c4ccccc4)nc-3c2)cc1 [GPJN-24, 2-Phenyl-5-[[4-(trifluoromethyl)phenyl]methyl]-5H-imidazo[4,5-c]pyridine] |  | 21 (≈ 59.4 µM) |  | 0.04 (≈ 0.113 µM) |  |
| Cc1cccc(-c2nc3ccn(Cc4ccc(Br)cc4)cc-3n2)c1 [GPJN-60, 5-[(4-Bromophenyl)methyl]-2-(3-methylphenyl)-5H-imidazo[4,5-c]pyridine] | >100 | > 77 | 6.1 (≈ 16.1 µM) |  | EC50 ([4]; Bovine viral diarrhea virus isolates and strains, MDBK): 0.015 µg/mL (≈ 0.0397 µM) |
| Brc1ccc(Cn2ccc3nc(-c4cccs4)nc-3c2)cc1 [GPJN-53, 5-[(4-Bromophenyl)methyl]-2-(2-thienyl)-5H-imidazo[4,5-c]pyridine] |  | 66 (≈ 178 µM) |  | 0.033 (≈ 0.0891 µM) |  |
| c1ccc(-c2ccc(Cn3ccc4nc(-c5ccccc5)nc-4c3)cc2)cc1 [GPJN-32, 5-([1,1′-Biphenyl]-4-ylmethyl)-2-phenyl-5H-imidazo[4,5-c]pyridine] | 69 (≈ 191 µM) | 20 (≈ 55.3 µM) | 6.5 (≈ 18 µM) | 0.027 (≈ 0.0747 µM) |  |
